# Measured values taken from patent publication US20080003660A1, “Use of fast-release pristinamycin-type and polyether ionophore type antimicrobial agents in the production of ethanol” (priority 2006, published 2008).
# Tests used:
# [1] = pH in the fermenters; cited from earlier work
# [2] = stability in water (hydrolysis); type: physicochemical
# Description: In another embodiment at least a portion of said antimicrobial agent is added to the mash as a composition comprising particles comprising said substantially water insoluble antimicrobial agent(s), said composition being in the form of a slurry. In another embodiment at least a portion of said antimicrobial agent is added to the mash as a composition comprising particles comprising said substantially water insoluble antimicrobial agent(s) and having a weight mean average diameter of between 0.1 and 2 microns, said composition being in the form of a slurry. Many of the preferred antimicrobial agents have a slight instability when dissolved in water, which can be significant over long storage periods. […] Coating particles with protectorants will reduce stability problems. Placing the slurry in a […] substantially water-free material, be it fatty acids, surfactants, dispersants, solvents in which the antimicrobial agents have minimal solubility (called an “oil flowable slurry”), or any combination of the above can reduce loss of antimicrobial agent. […] An oil-flowable slurry can be readily prepared by milling the antimicrobial agents as described herein, but where the solvent replaces the water in the milling process. […]
# [3] = cited from earlier work
# [4] = dissolution of 0.1 gram powder in 4 liters of stirred water; type: physicochemical; conditions: 5.2 to 10 micron average particle size, 0.1 gram in 4 liters water, continuously stirred
# From the text: The over-riding factor in controlling pests such as lactobacilli, however, is the rate of dissolution of small granular pristinamycin-type antimicrobial agents and polyether ionophore-type antimicrobial agents in water or mash. A 0.1 gram sample of a 5.2 to 10 micron average particle size virginiamycin was placed in a beaker with 4 liters of water, and the composition was continuously and vigorously stirred (providing very good mixing and turbulence). The presence of undissolved crystals was very evident. […] Such slow dissolution will reduce effectiveness of pulse treatments as it takes a long time for the added agents to become solubilized and effective, and will reduce the highest concentration of added agents resulting from a pulsed addition as some of the agent may be removed from the fermentator or other tank before the maximum amount of added agent is solubilized, and because some added agent may not dissolve at all. The solubility of monensin, virginiamycin, and similar pristinamycin-type antimicrobial agents and polyether ionophore-type antimicrobial agents in water is very low. Much more important, however, is the rate of dissolution of small granular pristinamycin-type antimicrobial agents and polyether ionophore-type antimicrobial agents in water. […]
# [5] = type: physicochemical
# From the text: In one embodiment, the liquid phase of the slurry comprises water and up to 25%, for example between 15% and 23%, of ethanol. This ethanol will pre-dissolve a very small portion of the antimicrobial agents from the particles, giving the injected slurry a small but almost instantaneous punch.
# [6] = system: L. plantarum; experiment: development of resistance test, 10 week duration; type: cell-based; conditions: 10 week duration of the test
# From the text: One very effective control program involves the introduction of pristinamycin-type antimicrobial agents, and particularly virginiamycin, to the process. […] Usually, the “waste” byproduct, known as “Dried Distillers Grains with solubles (DDGS), is sold as animal feed, going 45% to dairy, 35% to beef, 15% to swine, and 5% to poultry industries. This is an important factor in the profitability of an ethanol production process, and the total amount of this byproduct produced per year is on the order of 3.5 million metric tons per year. The presence of residual antimicrobial agents in this material can adversely affect the value of this byproduct, as small residual amounts of antimicrobial agents in feed will promote the development of agent-resistant microorganisms. We have tested DDG samples from 8 major ethanol producers using virginiamycin to control microorganisms and found no detectable amount of virginiamycin in the DDG (<1 ppm via the validated Eurofins analysis and <1 ppb via an unvalidated experimental analytical procedure). […] Generally, however, the virginiamycin in mash is destroyed by drying so virginiamycin must be re-added to the feed if so desired. Other effective control programs employ polyether ionophore antimicrobial agents, which provide many of the benefits obtained with pristinamycin-type antimicrobial agents. […]
molecule,measurement,setting,value
penicillin,inactivation at fermenter pH,[1],partially inactivated
[H]/N=C(/N)N[C@H]1[C@H](O)[C@@H](O)[C@H](O[C@@H]2O[C@@H](C)[C@](O)(C=O)[C@H]2O[C@@H]2O[C@@H](CO)[C@H](O)[C@@H](O)[C@@H]2NC)[C@@H](N/C(N)=N\[H])[C@@H]1O [streptomycin],inactivation at fermenter pH,[1],partially inactivated
virginiamycin,stability when in water,[2],slow hydrolysis
same,solubility in water,[3],0.0001 grams/l
same,time before only a few crystals remained visible,[4],on the order of an hour
same,solubility in water/ethanol,[5],high solubility
same,time for L. plantarum to develop resistance,[6],no development of resistance
CC[C@@]1([C@@H]2O[C@@H]([C@H]3O[C@@](O)(CO)[C@H](C)C[C@@H]3C)C[C@@H]2C)CC[C@H]([C@]2(C)CC[C@]3(C[C@H](O)[C@@H](C)[C@@H]([C@@H](C)[C@@H](OC)[C@H](C)C(=O)O)O3)O2)O1 [monensin],solubility in water/ethanol,[5],high solubility
